Here are results for 3 compounds from patent US9371337B2, “β-lactamase inhibitors” (The Regents of the University of California, priority 2011, dated 2016).

In data set [1] the target is T1, AmpC β-lactamase (Escherichia coli, UniProt P00811).
T1 construct: made in house
The data set is described as follows: biochemical. Type of data set: biochemical. As to the method: FIG. 18. Representative IC50 curves. […] IC50 curves were obtained by measuring rates (in duplicates) at different inhibitor concentrations (x-axis) and by determining the residual activity (y-axis, in percentage). IC50 values were determined by non-linear regression and Ki values calculated using GraphPad software assuming competitive inhibition.
Sulfonamidomethaneboronic acids were dissolved in 100% DMSO at a concentration of 100 mM; more diluted stocks were prepared as necessary. […] The enzyme was expressed and purified as described (Usher, K. C. et al., Biochemistry 1998, 37, 16082-16092) and CENTA was purchased from Tydock Pharma.
Kinetic measurements were run at room temperature in 50 mM sodium-cacodylate pH 6.5 in the presence of 0.01% Triton-X to prevent non-specific inhibition via compound aggregation. […] (Kettner, C. A. and Shenvi, A. B., J. Biol. Chem. 1984, 259, 15106-15114) Reactions were performed in 1 mL cuvettes with 60 μM CENTA and initiated by adding 1.2 nM enzyme. […] (Weston, G. S. et al., J. Med. Chem. 1998, 41, 4577-4586) The first 180 sec of each reaction were used to measure initial rates. IC50 values were obtained by fitting binding data to a sigmoidal dose-response equation using GraphPad Prism (GraphPad software, Inc). Ki values were determined by the use of Cheng-Prusoff equation. (Cheng, Y. and Prusoff, W. H., Biochem. Pharmacol. 1973, 22, 3099-3108)

The target of another data set is CTX-M-9 β-lactamase (Escherichia coli, UniProt Q9L5C8). The data set is described as follows: biochemical. The format is biochemical. Conditions: for Ki: Table 8, read-out: Ki vs CTX-M-9; for potency estimated from few doses: read-out: IC50 (Estimated from single concentration measurement); for inhibition at 16 µM: read-out: Percentage inhibition with 16 μM inhibitor. As to the method:
Reactions were initiated by the addition of 0.3 nM enzyme and monitored at 405 nm.
(§1) To assess the selectivity of the new molecules we determined Ki values against three common serine proteases, Trypsin, Elastase and α-Chymotrypsin, as well as that of a class A β-lactamase, CTX-M-9 (Table 10) (Pouvreau L, et al. (1998), FEBS Lett 423:167-172; Del Mar E G, et al. (1980), Biochemistry 19:468-472; Rodriguez-Martinez J A, et al. (2009), Biotechnol Lett 31:883-887; Chen Y, et al. (2005), J Mol Biol 348:349-362).

Data set [2] concerns the target T2, α-chymotrypsin (bovine pancreatic) (Bos taurus, UniProt P00766).
T2 construct: purchased Sigma-Aldrich
Nature of the data set: α-Chymotrypsin inhibition. The format is biochemical. Conditions: for activity at 100 µM: Table 4b, 100 μM inhibitor, read-out: Percentage activity with 100 μM inhibitor; for potency estimated from few doses: Table 4e, read-out: IC50 (Estimated from single concentration measurement); for Ki: Table 10, α-Chymotrypsin; for inhibition at 100 µM: read-out: Percentage inhibition with 100 μM inhibitor. As to the method: α-Chymotrypsin assays were performed in 50 mM Tris buffer pH 7.5 with 0.01% Triton-X. Inhibitor and 0.001 mg/mL enzyme were incubated at their final concentration for 10 min before the reaction was initiated by the addition of 200 μM N-succinyl-Ala-Ala-Pro-Phe p-nitroanilide and monitored at 410 nm.
as §1

Data set [3] has as its target T3, Trypsin (UniProt P00760).
T3 construct: IC50 (Estimated from single concentration measurement); Ki
T3 sequence (P00760 1-246): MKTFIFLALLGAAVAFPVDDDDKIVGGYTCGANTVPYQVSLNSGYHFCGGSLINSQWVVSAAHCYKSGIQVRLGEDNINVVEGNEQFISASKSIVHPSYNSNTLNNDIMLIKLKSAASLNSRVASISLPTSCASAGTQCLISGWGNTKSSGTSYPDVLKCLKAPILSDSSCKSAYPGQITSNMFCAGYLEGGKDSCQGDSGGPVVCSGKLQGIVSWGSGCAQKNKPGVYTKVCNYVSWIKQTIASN
The data set is described as follows: Trypsin inhibition. Type of data set: biochemical. The following applies: Table 10, Trypsin.
Description: as §1

The next data set concerns Elastase. Nature of the data set: Elastase inhibition. Type of data set: biochemical. Conditions: Table 4h, Elastase vs AmpC.
Description: as §1

In data set [4] the test system is clinical strains resistant to third-generation cephalosporins. Nature of the data set: MIC distribution of third-generation cephalosporins alone or with compounds over clinical strains. Type of data set: cell-based. The following applies: for clinical isolates for which MICs dropped into the susceptible range (MICs≦1 μg/mL): cephalosporins combined with the compound; for MIC 25% percentile / MIC 75% percentile: third-generation cephalosporins in combination with the compound. The protocol: The anti-resistance activity of inhibitors was investigated by the determination of the minimum inhibitory concentrations (MICs) of the β-lactam/inhibitor combination necessary to inhibit the growth of clinically-isolated bacteria resistant to third-generation cephalosporins via expression of class A or class C β-lactamases (Table 6).
Susceptibility testing was performed and interpreted following the guidelines of CLSI. (Clinical and Laboratory Standards Institute, Performance standards for antimicrobial susceptibility testing, 20th Informational Supplement, M100-S20 2010) The compounds were dissolved in 50% DMSO, and dilutions were performed using Muller-Hinton medium. An adequate final concentration was obtained to determine the minimum inhibitory concentrations (MICs). The concentration of DMSO was maintained below 5%. The inhibitors were tested for synergy with the third-generation β-lactams ceftazidime and cefotaxime against several clinical bacteria. The ratio of β-lactams to inhibitors was 1:4. Each value reported reflects the average of three independent experiments. […] The Friedman's test and the Wilcoxon signed rank test were used to compare MIC values. Statistical significance was established at p<0.05.

Data set [5] has as its target T1, AmpC β-lactamase. The format is biochemical. The following applies: for type of inhibition: Lineweaver-Burk analysis, competition with substrate CENTA; for time dependence of inhibition (incubation effect, off-rate): enzyme incubation and dilution experiments.
Data set [6] has as its target T3, Trypsin. Nature of the data set: Trypsin inhibition. Conditions: for Percentage activity with 100 μM inhibitor: Table 4b; for Percentage inhibition with 100 μM inhibitor: Table 4c; for potency estimated from few doses: read-out: IC50 (Estimated from single concentration measurement), Table 4e. The format is biochemical.
The test system of data set [7] is Trypsin. The data set is described as follows: Trypsin inhibition. The format is biochemical. The following applies: Table 4h, Trypsin vs AmpC.
Data set [8] concerns K. pneumoniae and E. cloacae strains in which AmpC expression is inducible. The data set is described as follows: β-lactamase induction experiments (disk potentiation of ceftazidime). Type of data set: cell-based, Klebsiella pneumoniae; Enterobacter cloacae. The following applies: 64 μg of compounds or 32 μg cefoxitin per disk, ceftazidime disk 30 μg. The text has this:
FIG. 9. Inhibition of bacterial growth and potentiation effect. A) Activity of compounds 4 (CP4) and 9 (CP9) in combination with ceftazidime (CAZ) and alone against a Klebsiella pneumoniae strain producing AmpC β-lactamase. Solvent (SOL):DMSO/Water 1:1. B) Potentiation of β-lactamase inhibition in an E. cloacae strain in which ampC gene expression is inducible by β-lactam antibiotics, such as cefoxitin (FOX). C) Potentiation of β-lactamase inhibition in a Klebsiella pneumoniae isolate producing the inducible class C enzyme DHA-1.
A traditional β-lactam resistance mechanism is the upregulation of β-lactamase-encoding gene transcription caused by β-lactams such as cefoxitin and the β-lactamase inhibitor clavulanate. To test the role of compounds on the induction of AmpC expression, we investigated their ability to potentiate the action of the β-lactam ceftazidime. We compared the potentiation effect of compounds with that of cefoxitin (FIGS. 9B and 9C). Agar plates were inoculated with K. pneumoniae and E. cloacae strains in which AmpC expression is inducible. A ceftazidime-containing disk and a disk containing the inhibitors (cefoxitin or compounds 4 and 9) were placed on each plate. As ceftazidime diffuses from disks into the agar, a clear zone is created around the ceftazidime-containing disk, indicating where bacteria are unable to grow. The shape of this halo in the vicinity of the inhibitor-containing disk indicated the effect of these compounds on the induction of AmpC. The inhibition halos normally surrounding ceftazidime were substantially diminished in the regions nearest to the cefoxitin disk.
For the β-lactamase induction experiments, plates of Mueller Hinton agar were inoculated with two clinical strains (E. cloacae and K. pneumoniae) in which production of AmpC-type enzyme is inducible by β-lactam antibiotics. Inhibitors were added to blank disks, and the final content of inhibitor per disk was 64 μg of compounds and 32 μg cefoxitin. Disks of ceftazidime contained 30 μg of antibiotic.

[9] abbreviates: Ki (from multi- or single concentration measurements), Table 4g.

Sequence of CTX-M-9 β-lactamase (Q9L5C8 29-291): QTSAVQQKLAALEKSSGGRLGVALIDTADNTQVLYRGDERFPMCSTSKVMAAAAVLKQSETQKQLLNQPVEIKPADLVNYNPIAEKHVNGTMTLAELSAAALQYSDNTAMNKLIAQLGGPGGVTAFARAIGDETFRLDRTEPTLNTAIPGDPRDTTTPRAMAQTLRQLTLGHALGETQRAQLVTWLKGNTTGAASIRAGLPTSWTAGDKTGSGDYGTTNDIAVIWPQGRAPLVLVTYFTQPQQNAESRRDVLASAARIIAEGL
T1 sequence (P00811 20-377): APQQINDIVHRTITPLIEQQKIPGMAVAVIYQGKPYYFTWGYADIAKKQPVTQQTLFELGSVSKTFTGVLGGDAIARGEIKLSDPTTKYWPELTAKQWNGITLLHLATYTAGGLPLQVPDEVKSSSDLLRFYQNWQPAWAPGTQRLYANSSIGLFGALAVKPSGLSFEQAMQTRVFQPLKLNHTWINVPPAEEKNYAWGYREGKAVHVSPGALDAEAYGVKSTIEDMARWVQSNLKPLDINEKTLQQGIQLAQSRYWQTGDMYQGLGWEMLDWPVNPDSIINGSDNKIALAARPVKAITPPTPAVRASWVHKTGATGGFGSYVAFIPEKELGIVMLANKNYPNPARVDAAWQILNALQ

In general, IC50 refers to the point on the concentration scale where inhibition reaches its midpoint. What is called Ki is the dissociation constant of the complex between target and ligand, obtained from inhibition or displacement. As a reminder, the inhibition is the drop in the measured response relative to a control, in per cent. A word on the melting point: it is the temperature, or range, at which the solid turns liquid. Regarding `O=S(=O)(NCB(O)O)c1ccc(-c2nn[nH]n2)cc1Cl` [CR190, [2-chloro-4-(3-tetrazol-5-yl)benzensulfonylamino]methaneboronic acid], the melting point is 110 to 113 °C (dec.). The IC50 against AmpC β-lactamase [1] stood at 1.6 nM. Besides, at AmpC β-lactamase [1] (setting [9]), affinity was put at a Ki of 0.2 nM. In addition, the affinity at AmpC β-lactamase [1] (Ki Vs AmpC, Table 7), expressed as Ki, was 0.2 nM. The compound also yielded a Ki at AmpC β-lactamase [1] (Ki vs AmpC, Table 8) of 0.2 nM. The inhibition constant (Ki) at AmpC β-lactamase [1] (Ki, Table 5) came out at 0.2 nM. The same compound registered a Ki on AmpC β-lactamase [1] (Ki, Table 10, AmpC) of 0.2 nM. On AmpC β-lactamase [1] (Ki, running text and FIG. 18, substrate CENTA 105 μM), this compound had an inhibition constant (Ki) of 0.2 nM. Further, the Ligand efficiency on AmpC β-lactamase [1] (Table 5) was 0.65. Moreover, the “improved affinity compared to CR157” value on AmpC β-lactamase [1] (ratio of Ki values) is 6 fold. Further, on CTX-M-9 β-lactamase, the half-maximal inhibitory concentration (IC50) worked out at 4 µM, the inhibition constant (Ki) came to 1400 nM, the potency estimated from few doses is 4 µM and the inhibition at 16 µM turned out to be 81%. The “Selectivity vs AmpC (comparison of IC50 values)” value (“Selectivity vs AmpC” below) on CTX-M-9 β-lactamase (Table 4h, CTX-M-9 vs AmpC) is 2346. For the same compound, in data set [2], the activity at 100 µM was determined as 85%, the potency estimated from few doses is 567 µM, affinity was put at a Ki of 141 µM and the inhibition at 100 µM amounted to 15%. Also, the “Selectivity vs AmpC” value in data set [2] (Table 4h, Chymotrypsin vs AmpC) came to 354167. On Trypsin [3], this compound registered a Ki of 350 µM. Besides, in the data set on Elastase, the “Selectivity vs AmpC” value is 30784. Also, in data set [4], the “clinical isolates for which MICs dropped into the susceptible range (MICs≦1 μg/mL)” value is listed as 50%, the “MIC 25% percentile” value is 0.5 µg/mL and the “MIC 75% percentile” value was found to be 2.0 µg/mL. On AmpC β-lactamase [5], the type of inhibition entry is reported as “competitive” and the “time dependence of inhibition (incubation effect, off-rate)” value is “slow off-rate”. Besides, on Trypsin [6], the “Percentage activity with 100 μM inhibitor” value came out at 95, the “Percentage inhibition with 100 μM inhibitor” value came out at 5 and the potency estimated from few doses is 1.9 mM. In the data set with Trypsin [7], the “Selectivity vs AmpC” value is 1187500.
Regarding `O=S(=O)(NCB(O)O)c1ccc(-c2nn[nH]n2)c(Cl)c1` [CR191, [3-chloro-4-(3-tetrazol-5-yl)benzensulfonylamino]methaneboronic acid], the melting point is 195 to 198 °C (dec.). In addition, 1.6 nM corresponded to half-maximal inhibition at AmpC β-lactamase [1] (IC50). Moreover, the affinity on AmpC β-lactamase [1] (Ki), expressed as Ki, was 3 nM. At AmpC β-lactamase [1] (setting [9]), the Ki stood at 3 nM. Also, the inhibitory constant (Ki) at AmpC β-lactamase [1] (Ki Vs AmpC, Table 7) was found to be 3 nM. The same compound returned an inhibition constant Ki at AmpC β-lactamase [1] (Ki vs AmpC, Table 8) of 3 nM. Moreover, the Ki on AmpC β-lactamase [1] (Ki, Table 5) was found to be 3 nM. The inhibition constant Ki on AmpC β-lactamase [1] (Ki, Table 10, AmpC) came to 3 nM. On AmpC β-lactamase [1] (Table 5), this compound returned a Ligand efficiency of 0.57. Besides, at CTX-M-9 β-lactamase, the concentration for half-maximal inhibition (IC50) was found to be 7 µM, the Ki was 2500 nM, the potency estimated from few doses was 7 µM and the inhibition at 16 µM was 70%. In [2], the activity at 100 µM was 85%, the potency estimated from few doses was 567 µM, the Ki was 141 µM and the inhibition at 100 µM was 15%. For the same compound, on Trypsin [3], the Ki was found to be 350 µM. In addition, in [4], the “clinical isolates for which MICs dropped into the susceptible range (MICs≦1 μg/mL)” value stood at 25%, the “MIC 25% percentile” value turned out to be 1.0 µg/mL and the “MIC 75% percentile” value was determined as 4.0 µg/mL. Moreover, on AmpC β-lactamase [5], the type of inhibition result is “competitive” and the “time dependence of inhibition (incubation effect, off-rate)” value is “slow off-rate”. In addition, at Trypsin [6], the “Percentage activity with 100 μM inhibitor” value worked out at 95, the “Percentage inhibition with 100 μM inhibitor” value came out at 5 and the potency estimated from few doses is 1.9 mM.
Consider `CO[C@@]1(NC(=O)Cc2cccs2)C(=O)N2C(C(=O)O)=C(COC(N)=O)CS[C@@H]21` [cefoxitin, reference compound], for which the “effect on the ceftazidime inhibition halo (induction of AmpC)” value in data set [8] is “antagonist picture”.
